Tests used:
[1] = Substrate specificities for amino-terminal deleted nanoKAZ; assay type: biochemical; settings: for luminescence activity higher than that of coelenterazine: as luminescence substrate of the luciferase mutant, general description; for Relative luminescence activity (Imax) 6h-f-CTZ: substrate 6h-f-coelenterazine; for Relative luminescence activity (Imax) 6h-f-CTZ / Relative luminescence activity (Imax) bis-CTZ / Relative luminescence activity (Imax) f-CTZ / Relative luminescence activity (Imax) h-CTZ: relative to nanoKAZ with CTZ; for Relative luminescence activity (Imax) bis-CTZ: substrate bis-coelenterazine; for Relative luminescence activity (Imax) CTZ: substrate coelenterazine (CTZ), culture medium of CHO-K1, pcDNA3 vectors, nanoKAZ with CTZ = 1.00; for Relative luminescence activity (Imax) f-CTZ: substrate f-coelenterazine; for Relative luminescence activity (Imax) h-CTZ: substrate h-coelenterazine
Procedure: The enzyme solutions of amino-terminal deleted nanoKAZ used for substrate specificity studies were prepared by the method described in EXAMPLE 12, using pcDNA3 vectors (pcDNA3-ΔN2T-nKAZ, pcDNA3-ΔN3L-nKAZ, pcDNA3-ΔN4E-nKAZ, pcDNA3-ΔN5D-nKAZ and pcDNA3-ΔN6F-nKAZ) for expression of the amino-terminal deletions, which were obtained by the method described in EXAMPLE 11. After transfection to CHO-K1 cells and then incubation for 48 hours, the culture medium were collected and stored in a frozen state. The coelenterazine analogues used for substrate specificity studies were synthesized by the methods described in publications, respectively. Specifically, coelenterazine (CTZ), h-coelenterazine (h-CTZ) and f-coelenterazine (f-CTZ), 6h-f-coelenterazine (6h-f-CTZ) were synthesized by the method described in Inouye et al (2013) Biochem. Biophys. Res. Commun. 437: 23-28, and bis-coelenterazine (bis-CTZ) was synthesized by the method described in Nakamura et al, (1997) Tetrahedron Lett. 38: 6405-6406.
A luminescence reaction was started by the addition of 2 μL of the freeze-thawed culture medium on ice to 100 μL of TE containing 1 μg of coelenterazine or its analogue. The luminescence activities were measured for 10 seconds using a luminometer (manufactured by Atto Inc.: AB2200), and the maximum intensity of luminescence (Imax) of nanoKAZ was shown as a relative luminescence activity using coelenterazine as a substrate.

[2] = system: CHO-K1 cells; assay: Luminescence activity of amino-terminal deleted nanoKAZ expressed in animal cultured cells (culture medium and cell extracts); assay type: cell-based, Chinese hamster; settings: coelenterazine; for Relative luminescence activity (%, Imax) pcDNA3- Cell extracts / Relative luminescence activity (%, Imax) pcDNA3- Culture medium: lacking secretory signal peptide; for Relative luminescence activity (%, Imax) pcDNA3- Cell extracts / Relative luminescence activity (%, Imax) pcDNA3-GLsp- Cell extracts: CHO-K1, cell extracts; for Relative luminescence activity (%, Imax) pcDNA3- Culture medium / Relative luminescence activity (%, Imax) pcDNA3-GLsp- Culture medium: CHO-K1, culture medium; for Relative luminescence activity (%, Imax) pcDNA3-GLsp- Cell extracts / Relative luminescence activity (%, Imax) pcDNA3-GLsp- Culture medium: with Gaussia luciferase secretory signal peptide
Procedure: Chinese hamster ovary cell line CHO-K1 was cultured in Ha F-12 medium (manufactured by Wako Pure Chemical Industries, Ltd.) supplemented with 10% (v/v) fetal bovine serum (manufactured by Biowest Inc.) (hereinafter sometimes referred to as Ham's F-12 medium). The CHO-K1 cells were seeded in a 6-well plate in 1×10^5 cells/well/2 mL medium (n=2) and cultured in an incubator at 37° C. in 5% (v/v) CO2. After 24 hours, the purified recombinant plasmid was transfected to CHO-K1 cells using a FuGene HD transfection kit (manufactured by Promega Corp.) and the cells were provided for subsequent experiment. Specifically, 1 μg of the recombinant plasmid, 0.1 μg of the internal standard vector pGL4.13 [Luc2/sv40] and 3 μL of FuGene HD were added to 100 μL of the medium and allowed to stand at room temperature for 15 minutes. Subsequently, 100 μL, of the DNA-FuGene complex was added to the cells in the 6-well plate. After incubation for 44 hours, the culture medium was collected. On the other hand, the cells expressed the KAZ mutants were washed 3 times with 3 mL of 1×PBS, then suspended in 1 mL of 1×PBS and disrupted by sonication on ice. The resultant cell extracts of nanoKAZ deletion mutants was used as enzyme solutions.
Culture media containing the secreted amino-terminal deleted nanoKAZ and cell extracts of amino-terminal deleted nanoKAZ as the enzyme solutions were prepared in the same manner as in EXAMPLE 10.
After adding of 5 μL each of the culture media and cell extracts obtained in EXAMPLE 10 and EXAMPLE 12, respectively, to 100 μL of TE containing 1 μg of coelenterazine (manufactured by JNC Corp.), a luminescence reaction was started. The luminescence activity was measured for 60 seconds using a luminometer (manufactured by Atto Inc.: AB2200), and the maximum intensity of luminescence (Imax) was given as a percentage (%).

[3] = Luminescence activity of amino-terminal deleted nanoKAZ and ZZ-fused amino-terminal deleted nanoKAZ in crude enzyme solution; assay type: biochemical; settings: expressed in E. coli BL21, crude enzyme solution, coelenterazine substrate, nanoKAZ = 100; for Relative luminescence activity (%, Imax) pCold-ZZ-P-: ZZ-fused (pCold-ZZ-P- vector); for Relative luminescence activity (%, Imax) pCold-: pCold- vector
Procedure: In order to express the amino-terminal deleted nanoKAZ in E. coli, the recombinant plasmid obtained in EXAMPLE 4 was used. The E. coli BL21 strain (Novagen, Madison, Wis.) was used as a host cell. The BL21 strain carrying the recombinant plasmid was incubated in 5 mL of Luria-Bertani medium (hereinafter designated as LB medium) containing ampicillin (50 μg/mL) at 37° C. for 18 hours. The seed culture of 0.1 mL was inoculated to 10 mL of LB medium and incubated for 3 hours, followed by cooling in an ice-water bath for 1 hour. IPTG was added to the culture medium at a final concentration of 0.1 mM, followed by incubation at 15° C. for further 17 hours. After completion of the incubation, 1 mL of the culture medium was collected by centrifugation at 10,000 rpm for 2 minutes. The collected E. coli cells were suspended in 0.5 mL of 30 mM Tris-HCl (pH 7.6)-10 mM EDTA (manufactured by Wako Pure Chemical Industries, Ltd.) (hereinafter designated as TE). The E. coli cells were disrupted by sonication for 3 seconds using a Branson model 250 sonifire (Danbury, Conn.) to give a crude enzyme solution. Then, 5 μL of the crude enzyme solution was analyzed by SDS-PAGE to confirm the protein expression (FIG. 1).
To express the ZZ-fused amino-terminal deleted nanoKAZ in E. coli, the recombinant plasmid obtained in EXAMPLE 6 was used. Crude enzyme solutions were prepared using a similar manner to EXAMPLE 5 using the E. coli BL21 strain (Novagen, Madison, Wis.) as a host cell. Then, 5 μL of the crude enzyme solution obtained was subjected to SDS-PAGE analysis to confirm the protein expression (FIG. 2).
The crude enzyme solutions obtained in EXAMPLE 5 and EXAMPLE 7 were allowed to stand in an ice-water for over 1 hour and then diluted to 50-fold in TE. By addition of 1 μL each of the crude enzyme solutions to 100 μL of TE containing 1 μg of coelenterazine (manufactured by JNC Corp.), a luminescence reaction was started. The luminescence activity was measured for 60 seconds using a luminometer (manufactured by Atto AB2200); the maximum intensity of luminescence (Imax) is given as a percentage (%).

Row | Molecule | luminescence activity higher than that of coelenterazine [1] | Relative luminescence activity (Imax) 6h-f-CTZ [1] | Relative luminescence activity (Imax) bis-CTZ [1] | Relative luminescence activity (Imax) CTZ [1] | Relative luminescence activity (Imax) f-CTZ [1] | Relative luminescence activity (Imax) h-CTZ [1] | Relative luminescence activity (%, Imax) pcDNA3- Cell extracts [2] | Relative luminescence activity (%, Imax) pcDNA3- Culture medium [2] | Relative luminescence activity (%, Imax) pcDNA3-GLsp- Cell extracts [2] | Relative luminescence activity (%, Imax) pcDNA3-GLsp- Culture medium [2] | Relative luminescence activity (%, Imax) pCold-ZZ-P- [3] | Relative luminescence activity (%, Imax) pCold- [3] | activity compared with nanoKAZ (in words) ([1]; substrates bis-CTZ, 6h-f-CTZ, h-CTZ and f-CTZ)
1 | O=c1c(Cc2ccc(F)cc2)nc2c(Cc3ccccc3)[nH]c(-c3ccccc3)cn1-2 [6h-f-coelenterazine, reference compound] | approximately 10 times | – | – | – | – | – | – | – | – | – | – | – | –
2 | O=c1c(Cc2ccc(F)cc2)nc2c(Cc3ccccc3)[nH]c(-c3ccc(O)cc3)cn1-2 [f-CTZ, f-coelenterazine, reference compound] | 10 times | – | – | – | – | – | – | – | – | – | – | – | –
3 | Oc1ccc(-c2cn3c(O)c(Cc4ccccc4)nc3c(Cc3ccccc3)n2)cc1 [h-CTZ, h-coelenterazine, reference compound] | 10 times | – | – | – | – | – | – | – | – | – | – | – | –
4 | bis-coelenterazine [reference compound] | approximately 10 times | – | – | – | – | – | – | – | – | – | – | – | –
5 | nanoKAZ: mutated 19 kDa catalytic protein of Oplophorus luciferase with 16 mutations, amino acid sequence SEQ ID NO: 2 [reference compound] | – | 7.00 | 6.93 | 1.00 | 12.65 | 11.76 | 29.4% | 100% | 4.8% | 100% | 100% | 100% | –
6 | ΔN2T-nKAZ: nanoKAZ (SEQ ID NO: 2) with deletion of the phenylalanine residue at the first amino acid; SEQ ID NO: 4 | – | 8.02 | 8.99 | 1.03 | 15.04 | 13.38 | 23.3% | 93.4% | 3.4% | 97.0% | 93.4% | – | higher activity than nanoKAZ
7 | ΔN3L-nKAZ: nanoKAZ with 2 amino-terminal amino acids deleted; SEQ ID NO: 6 | – | 5.25 | 5.39 | 0.50 | 9.88 | 9.39 | 16.2% | 50.6% | 4.4% | 87.7% | 82.0% | – | –
8 | ΔN4E-nKAZ: nanoKAZ with 3 amino-terminal amino acids deleted; SEQ ID NO: 8 | – | 0.36 | 0.35 | 0.05 | 0.70 | 0.58 | 9.7% | 4.6% | 2.9% | 60.5% | 74.0% | – | –
9 | ΔN5D-nKAZ: nanoKAZ with 4 amino-terminal amino acids deleted; SEQ ID NO: 10 | – | 0.01 | 0.01 | 0.01 | 0.02 | 0.01 | 1.5% | 0.1% | 1.7% | 56.2% | 73.6% | 87.0% | –
